Consider eight compounds from article PMC7101422, “N-Phenethyl Substitution in 14-Methoxy-N-methylmorphinan-6-ones Turns Selective µ Opioid Receptor Ligands into Dual µ/δ Opioid Receptor Agonists” (Scientific Reports, 2020).

Like-named read-outs stand apart in the source and are kept apart here. Marks after values point to notes of the source that are not given here.

Series [1] relates to mice. Nature of the series: Rotarod assay in mice. The class given is in vivo. To be noted: 30 min after s.c. administration, doses equivalent to a 3- to 4-fold the antinociceptive ED50 dose.
Series [2] has as its target T1, human µOR (Homo sapiens, UniProt P35372).
T1 construct: host or cells: CHO cells (CHO-hµOR; CHO-hµOR-p22F for the cAMP assay)
Nature of the series: biochemical. The series is classed as binding.

Series [3] addresses T2, human δOR (Homo sapiens, UniProt P41143).
T2 construct: host or cells: CHO cells (CHO-hδOR; CHO-hδOR-p22F for the cAMP assay)
The series can be described thus: [35S]GTPγS binding assay, CHO-hδOR membranes. The class given is biochemical. The following applies: for δOR % stim. / fold higher δOR agonist potency vs. N-methyl counterpart: [35S]GTPγS binding; for δOR % stim.: relative to DPDPE; for fold higher δOR agonist potency vs. N-methyl counterpart: vs. 14-OMO (3) and 14-MM (4).

Series [4] has as its target T3, human κOR (Homo sapiens, UniProt P41145).
T3 construct: host or cells: CHO cells (CHO-hκOR)
The series can be described thus: [35S]GTPγS binding assay, CHO-hκOR membranes. The series is classed as biochemical. The following applies: for κOR % stim.: [35S]GTPγS binding, relative to U69,593.

Series [5] addresses T2, human δOR. The series can be described thus: Forskolin-induced cAMP accumulation assay, CHO-hδOR-p22F cells. The class given is cell-based. To be noted: for Emax: read-out: δOR % stim.
Series [6] deals with T1, human µOR. The series can be described thus: cell-based. The class given is cell-based. To be noted: for Emax: read-out: µOR % stim.
The target in series [7] is T3, human κOR. Nature of the series: biochemical. The class given is binding.
For series [8], the target named is T1, human µOR. Nature of the series: [35S]GTPγS binding assay, CHO-hµOR membranes. The series is classed as biochemical. The following applies: for µOR % stim.: [35S]GTPγS binding, relative to DAMGO.
Series [9] has as its target T2, human δOR. Nature of the series: Competition binding assay, CHO-hδOR cell membranes ([3H]Diprenorphine).
The test system of series [10] is mice. The series can be described thus: Radiant heat tail-flick test in mice. The class given is in vivo. To be noted: Mus musculus, sc, 0.5 h, s.c., at 30 min (peak effect), n = 5–6 mice per group, read-out: ED50 (95% CL).
The target of series [11] is T1, human µOR. To be noted: cited from earlier work.
Series [12] concerns the target T2, human δOR. The following applies: [35S]GTPγS binding; relative to DPDPE; cited from earlier work.
In series [13] the target is T3, human κOR. The following applies: cited from earlier work.
In series [14] the test system is mice. To be noted: s.c., cited from earlier work; for ED50 (95% CL): tail-flick, at 30 min (peak effect).
Series [15] deals with mice. The following applies: hot-plate test, s.c.; cited from earlier work.

T3 sequence (P41145 whole entry): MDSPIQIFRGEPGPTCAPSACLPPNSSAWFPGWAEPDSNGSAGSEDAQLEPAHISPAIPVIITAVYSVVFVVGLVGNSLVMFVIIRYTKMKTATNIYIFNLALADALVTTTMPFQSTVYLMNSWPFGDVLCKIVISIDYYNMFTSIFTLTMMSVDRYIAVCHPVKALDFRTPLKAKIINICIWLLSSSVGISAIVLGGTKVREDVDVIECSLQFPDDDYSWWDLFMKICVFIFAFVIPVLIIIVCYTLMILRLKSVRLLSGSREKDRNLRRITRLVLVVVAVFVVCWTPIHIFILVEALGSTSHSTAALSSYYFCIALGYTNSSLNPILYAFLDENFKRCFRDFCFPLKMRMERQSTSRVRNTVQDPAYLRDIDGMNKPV
T1 sequence (P35372 whole entry): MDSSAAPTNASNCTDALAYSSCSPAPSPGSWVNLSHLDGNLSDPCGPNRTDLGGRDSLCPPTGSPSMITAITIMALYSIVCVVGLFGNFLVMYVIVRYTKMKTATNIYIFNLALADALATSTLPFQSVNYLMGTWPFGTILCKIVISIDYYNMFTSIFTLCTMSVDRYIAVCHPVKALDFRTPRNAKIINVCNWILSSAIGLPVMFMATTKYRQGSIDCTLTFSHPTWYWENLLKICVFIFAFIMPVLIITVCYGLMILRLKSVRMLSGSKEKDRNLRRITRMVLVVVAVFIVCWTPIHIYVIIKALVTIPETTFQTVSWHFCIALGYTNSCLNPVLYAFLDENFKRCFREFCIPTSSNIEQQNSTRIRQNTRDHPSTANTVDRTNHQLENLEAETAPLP
T2 sequence (P41143 whole entry): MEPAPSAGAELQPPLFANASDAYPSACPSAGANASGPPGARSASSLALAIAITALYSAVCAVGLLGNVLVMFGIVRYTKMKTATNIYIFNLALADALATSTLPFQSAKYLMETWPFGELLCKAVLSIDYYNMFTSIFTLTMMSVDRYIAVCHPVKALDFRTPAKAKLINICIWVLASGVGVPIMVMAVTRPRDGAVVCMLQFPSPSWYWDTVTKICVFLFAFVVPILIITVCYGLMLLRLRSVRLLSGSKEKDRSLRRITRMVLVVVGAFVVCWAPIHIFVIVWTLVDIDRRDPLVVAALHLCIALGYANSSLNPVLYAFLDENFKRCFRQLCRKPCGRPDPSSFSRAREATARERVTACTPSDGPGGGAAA

As to `CN1CC[C@]23c4c5ccc(O)c4O[C@H]2[C@@H](O)C=C[C@H]3[C@H]1C5` [Morphine (1), Morphine, reference compound], the “effect on motor coordination (rotarod performance)” value (shortened to “effect on motor coordination”) in the series with mice [1] is “caused a significant deficit in rotarod performance”.
In the case of `CO[C@@]12CCC(=O)[C@@H]3Oc4c(O)ccc5c4[C@@]31CCN(C)[C@@H]2C5` [14-OMO (3), 14-O-methyloxymorphone, reference compound], the inhibitory constant (Ki) on human µOR [2] was 0.27 ± 0.09 nM; on human κOR [7], 10.3 ± 1.8 nM; at human δOR [9], 9.08 ± 0.31 nM. In addition, at human µOR [2], the “Ki ratio δOR/µOR” value worked out at 34. Moreover, the “Ki ratio κOR/µOR” value at human µOR [2] came out at 38. For the same compound, the 50% effective concentration (EC50) on human δOR [3] stood at 38.5 ± 6.9 nM; on human κOR [4] it was 135 ± 29 nM; on human δOR [5] it was 5.42 ± 0.93 nM; on human µOR [6], 0.19 ± 0.14 nM; at human µOR [8], 1.21 ± 0.48 nM. The δOR % stim. at human δOR [3] is reported as 102 ± 4%. For the same compound, the κOR % stim. on human κOR [4] turned out to be 65.9 ± 6.5%. Besides, the Emax on human δOR [5] is 98 ± 3%; on human µOR [6] it was 90 ± 8%. Besides, the µOR % stim. on human µOR [8] came to 95 ± 5%. The ED50 with mice [10] was 0.014 mg/kg.
For the compound `CO[C@@]12CCC(=O)[C@]3(C)Oc4c(O)ccc5c4[C@@]31CCN(CCc1ccccc1)[C@@H]2C5` [Compound 4a, 4,5α-Epoxy-3-hydroxy-14-methoxy-5-methyl-N-phenethylmorphinan-6-one], the melting point is 179 to 180 °C. Besides, at human µOR [2], the Ki turned out to be 0.24 ± 0.03 nM, the “Ki ratio δOR/µOR” value is listed as 6.0 and the “Ki ratio κOR/µOR” value turned out to be 147. At human δOR [3], the EC50 is 9.54 ± 2.33 nM, the δOR % stim. is 103 ± 2% and the “fold higher δOR agonist potency vs. N-methyl counterpart” value turned out to be 4 fold. At human κOR [4], this compound registered a 50% effective concentration (EC50) of 334 ± 114 nM and a κOR % stim. of 51.3 ± 10.4%. For the same compound, at human δOR [5], the EC50 amounted to 0.55 ± 0.16 nM and the Emax amounted to 96 ± 4%. At human µOR [6], the concentration for a half-maximal effect (EC50) came to 0.15 ± 0.07 nM and the Emax is 98 ± 12%. Also, on human κOR [7], the inhibitory constant (Ki) was determined as 35.3 ± 5.5 nM and the “fold decrease in κOR affinity vs. N-methyl parent” value is on record as “ca. 3 fold”. Moreover, on human µOR [8], the EC50 was found to be 1.86 ± 0.84 nM and the µOR % stim. came to 102 ± 13%. The compound also displayed a Ki at human δOR [9] of 1.45 ± 0.31 nM. In the series on mice [10], the ED50 was determined as 0.024 mg/kg. The “effect on motor coordination” value with mice [1] is “lack of the mixed µ/δOR agonists 3a and 4a to induce motor dysfunction”.
On to `Oc1ccc2c3c1O[C@H]1[C@@H](O)C=C[C@H]4[C@@H](C2)N(CCc2ccccc2)CC[C@@]341` [Compound 1a], for which, at human µOR [11], the “fold increase in µOR agonist potency vs. N-methyl parent” value was 2- to 3 fold and the µOR % stim. is on record as 113 ± 8^b %. In addition, on human µOR [2], the Ki was 0.25 ± 0.09 nM, the “Ki ratio δOR/µOR” value is 98, the “Ki ratio κOR/µOR” value was 374 and the “fold increased affinity at the human µOR vs. N-methyl parent” value is listed as “ca. 13 fold”. Moreover, the δOR % stim. at human δOR [12] is listed as 138 ± 17^b %. Besides, at human δOR [5], the concentration for a half-maximal effect (EC50) is 315 ± 110 nM and the Emax was found to be 105 ± 8%. Besides, at human µOR [6], it took 2.87 ± 0.91 nM to reach a half-maximal effect (EC50), the “fold enhanced µOR agonist potency vs. N-methyl parent” value is 4- to 5 fold and the Emax was 107 ± 5%. On human κOR [7], this compound showed a Ki of 93.5 ± 2.9 nM. The Ki on human δOR [9] was 24.5 ± 8.7 nM. Further, at human κOR [13], the κOR % stim. is 19 ± 2^b*** %. Moreover, in the series on mice [14] (tail-flick test), the “fold higher antinociceptive potency vs. N-methyl parent” value is reported as 28 fold. The “ED50 (95% CL)” value with mice [14] is recorded as 0.11 (0.027–0.40)^b mg/kg. In addition, the “effect on motor coordination” value with mice [1] was “did not affect the evoked locomotor activity of mice”. For the same compound, the “fold more effective than morphine (antinociception)” value with mice [15] is reported as 22 fold.
`CN1CC[C@]23c4c5ccc(O)c4O[C@H]2C(=O)CC[C@@]3(O)[C@H]1C5` [Oxymorphone (2), oxymorphone, reference compound]: the “ED50 (95% CL)” value in the series with mice [14] is given as 0.35 (0.16–0.77)^b mg/kg. Also, in the series on mice [1], the “effect on motor coordination” value is “caused a significant deficit in rotarod performance”.
`O=C1CC[C@@]2(O)[C@H]3Cc4ccc(O)c5c4[C@@]2(CCN3CCc2ccccc2)[C@H]1O5` [Compound 2a]: the “ED50 (95% CL)” value in the series on mice [14] is given as 0.15 (0.058–0.40)^b mg/kg. Besides, the “effect on motor coordination” value in the series on mice [1] is “did not affect the evoked locomotor activity of mice”.
`CO[C@@]12CCC(=O)[C@]3(C)Oc4c(O)ccc5c4[C@@]31CCN(C)[C@@H]2C5` [14-MM (4), 14-methoxymetopon, reference compound]: the “Ki ratio δOR/µOR” value on human µOR [2] is listed as 74. On human µOR [2], the “Ki ratio κOR/µOR” value amounted to 51. In addition, the Ki on human µOR [2] (read-out: Ki µOR) worked out at 0.25 ± 0.04 nM; on human κOR [7] it was 12.8 ± 1.5 nM; at human δOR [9], 18.6 ± 0.98 nM. In addition, the EC50 at human δOR [3] was 36.8 ± 12.4 nM; on human κOR [4], 181 ± 9 nM; at human δOR [5], 4.06 ± 0.89 nM; at human µOR [6], 0.31 ± 0.07 nM; at human µOR [8], 2.66 ± 0.58 nM. On human δOR [3], this compound returned a δOR % stim. of 100 ± 9%. The same compound showed a κOR % stim. on human κOR [4] of 68.9 ± 9.2%. Also, the Emax at human δOR [5] came to 99 ± 8%; on human µOR [6] it was 93 ± 5%. At human µOR [8], this compound came in with a µOR % stim. of 99 ± 5%. The ED50 in the series with mice [10] was determined as 0.024 mg/kg.
Consider `CO[C@@]12CCC(=O)[C@@H]3Oc4c(O)ccc5c4[C@@]31CCN(CCc1ccccc1)[C@@H]2C5` [Compound 3a, 4,5α-Epoxy-3-hydroxy-14-methoxy-N-phenethylmorphinan-6-one], for which the melting point lay in the range of 180 to 182 °C. Moreover, at human µOR [2], the inhibition constant (Ki) was determined as 0.19 ± 0.02 nM, the “Ki ratio δOR/µOR” value stood at 9.5 and the “Ki ratio κOR/µOR” value is recorded as 83. Also, at human δOR [3], the EC50 was found to be 9.34 ± 0.6 nM, the δOR % stim. is listed as 107 ± 5% and the “fold higher δOR agonist potency vs. N-methyl counterpart” value stood at 4 fold. At human κOR [4], a half-maximal response (EC50) required 144 ± 9 nM and the κOR % stim. stood at 35.4 ± 7.5 %. Also, on human δOR [5], the midpoint of the response, the EC50, lay at 0.6 ± 0.07 nM and the Emax worked out at 93 ± 2%. At human µOR [6], a half-maximal response (EC50) required 0.078 ± 0.004 nM and the Emax is 88 ± 12%. The compound further displayed a Ki at human κOR [7] of 15.8 ± 8.8 nM. On human µOR [8], this compound yielded an EC50 of 1.26 ± 0.63 nM and a µOR % stim. of 98 ± 10%. On human δOR [9], this compound had a Ki of 1.81 ± 0.68 nM. Besides, the ED50 in the series with mice [10] was found to be 0.014 mg/kg. In addition, the “effect on motor coordination” value with mice [1] was “lack of the mixed µ/δOR agonists 3a and 4a to induce motor dysfunction”.
